How the values were obtained:
testosterone = details: 5 mg b.i.d. (Group B) compared with 10 mg q.d. (Group C), oral
Protocol: Twenty subjects were assigned to each dosing group. Dosing groups were dosed sequentially, beginning with 5 mg q.d. group (Group A). Dosing for the 5 mg b.i.d. group (Group B) commenced 2 weeks after the initiation of Group A and the dosing for the 10 mg q.d. group (Group C) began 2 weeks after initiation of the 5 mg b.i.d. group. […] For all measurements, the final value obtained before the start of the study drug administration was used as the baseline value for that variable.

[1] = in vivo
Protocol: A study was conducted to determine the bioavailability of leuprolide acetate when it was administered by the sublingual route. The study was conducted in fifteen healthy postmenopausal or surgically sterilized female volunteers. This study was conducted according to a single-dose, fasting, four-period, open-label, randomized design. […] 4.5 mg or a 1 mg subcutaneous dose. […] Five-ml plasma samples were collected by venipuncture prior to the study and at suitable time intervals after dosing. Plasma leuprolide acetate concentrations data was tabulated and the descriptive statistics were computed.

## CCNC(=O)[C@@H]1CCCN1C(=O)[C@H](CCCNC(=N)N)NC(=O)[C@H](CC(C)C)NC(=O)[C@@H](CC(C)C)NC(=O)[C@H](Cc1ccc(O)cc1)NC(=O)[C@H](CO)NC(=O)[C@H](Cc1c[nH]c2ccccc12)NC(=O)[C@H](Cc1c[nH]cn1)NC(=O)[C@@H]1CCC(=O)N1 [leuprolide acetate]
testosterone
  Elevation of plasma testosterone, comparison of regimens: more significant elevation of plasma testosterone
[1]
  Administered sublingual dose absorbed compared to subcutaneous reference: Approximately 1%

— US20030186892A1, “Enhancement of endogenous gonadotropin production” (priority 2002, published 2003)
